The subject of one series is HEK-293 cells. In words: Mammalian cell permeability and vitality, confocal microscopy (propidium iodide / fluorescein diacetate). Format: cell-based, human. The protocol: To test the permeability of HEK-293 cells, the cells were cultured in growth medium as described above. HEK-293 (90% confluent) were then seeded in a 96-well plate to get 30,000 cells/well. After 24 hours of incubation at 37° C. and 5% CO2, the spent media was replaced with media (DMEM and 10% FBS) containing compound 2 at either 20 μM or 80 μM. […] Triton X-100 at 0.1%—by volume (1670 μM) and DMSO 0.5% (v/v) were also used as controls. After 2 hours of incubation, spent media was replaced with PBS containing propidium iodide (30 μM) and fluorescein diacetate (60 μM) and incubated at 37° C. and 5% CO2. After 2 hour of incubation, the spend media was replaced with fresh PBS and the cells were observed under Zeiss LSM 700 confocal microscope. The images were reported without any alterations. The gain and the intensity in all the images were kept constant.
A compound that inhibits bacterial growth and penetrates into the microbe's cytosol may also penetrate into mammalian cells. A similar microscopic study was conducted with the human embryonic kidney (HEK-293) cell line. In this case, only compound 2 was studied. […] The microscopic study was therefore conducted at 20 μM, a value well below any inhibitory concentration, and at 80 μM, a concentration above all three MIC values. The 80 μM concentration was used to confirm the […] of 2 and to establish the lack of serum inhibition.

Series [1] concerns Tet^R E. coli. In words: Membrane permeability and viability, confocal microscopy (propidium iodide / fluorescein diacetate). The conditions noted are these: 0.1% (~1,670 μM) control detergent. Format: cell-based, Escherichia coli. The protocol:
To test the membrane permeability of the Tet^R E. coli, the bacteria was first grown overnight from one CFU in media containing 100 μg/mL Ampicillin at 37° C. and 200 RPM. Tet^R E. coli was then knocked back to O.D. 600 nm=0.550 before use. In a sterile test tube, cells were added followed by either compounds 2 or 10 at half-MIC concentrations and incubated at 37° C. and 200 RPM. The concentration of DMSO was kept constant at 0.5% —by volume in each case. After 30 minutes of incubation, the cells were washed by centrifugation at 3000×g for 5 minutes and re-suspended in sterile phosphate buffered saline (PBS). Propidium iodide (30 μM, Thermo-Fischer) and fluorescein diacetate (60 μM, Sigma-Aldrich) were added to the Tet^R E. coli cells in the PBS, mixed by vortexing and incubated at 37° C. and 200 RPM. After 30 minutes, the cells were washed again by centrifugation at 3000×g for 5 minutes. The pellet was suspended in a fresh PBS, loaded onto a clean glass slide, covered with a cover slip and observed under Zeiss LSM 700 confocal microscope.
The study was designed to assess the membrane permeability and viability of the E. coli in the presence of BTs 2 and 10. The three panels in FIG. 6 show the bright field (BF) microscopic images (top row), the result when fluorescein diacetate (FDA) is present (middle row), and the presence of propidium iodide (PI, bottom row), if any. […] When it does, it intercalates in DNA, which leads to enhanced fluorescence. Fluorescein diacetate is incorporated into the cells during growth, but is not fluorescent. If the organism is or remains vital, the diester will be hydrolyzed and fluorescein will be observed by its fluorescence emission.
Controls for the permeability/viability assay were included for E. coli in the presence of a final concentration of 0.5% (v/v) DMSO (the vehicle for administration of BTs), and a final concentration of 0.1% […] Triton X-100. […] Thus, less than or equal to 0.5% DMSO (v/v) was always used; the control is shown in the second column. Triton X-100 is a potent detergent, which was used at 0.1% or ˜1,670 μM.

The subject of series [2] is Tet^R E. coli. In words: MIC, CLSI/NCCLS broth microdilution. Format: cell-based, Escherichia coli. The settings on record: 24 h; for MIC: Escherichia coli, read-out: Minimal Inhibitory Concentration (MIC) E. coli Tet^R; for Minimal Inhibitory Concentration (MIC) E. coli Tet^R: >80% growth inhibition, 37° C., substance alone. The method, then: (§1) Two different strains of E. coli (Gram-negative) were used. The laboratory strain of E. coli, K-12 (ATCC Accession No. 700926), was used for preliminary MIC determinations. The tetracycline resistant strain of E. coli (Tet^R) was prepared by transforming competent JM109 E. coli (Promega) with the pBR322 plasmid (Carolina Biologicals) using the manufacturers protocol. This plasmid contains two resistance genes: the tetA gene expresses the tetracycline resistance TetA efflux pump (Sapunaric and Levy, Microbiol. 2005, 151, 2315-2322) and the amp^R gene expresses a β-lactamase enzyme (Bolivar, et al; Gene 1977, 2, 95-113) that cleaves the four membered ring of penicillin derivatives. The resulting E. coli, which we designate Tet^R E. coli, is both tetracycline and ampicillin resistant. The TetA efflux pump belongs to the major facilitator superfamily (MFS), spans the cytoplasmic membrane, and transports tetracycline from the cell cytoplasm to the periplasmic space (Thanassi, et al., J. Bacteriol. 1995, 177, 998-1007). This active efflux utilizes the proton gradient as an energy source (Levy, Antimicrob. Agents Chemother. 1992, 36, 695-703). One Gram-positive strain, S. aureus (ATCC Accession No. 29213), used for MIC study expresses the MFS type NorA efflux pump and is methicillin sensitive. MFS type efflux pumps are clinically relevant for resistance in both Gram-positive and Gram-negative bacteria (Sun, et al., Biochem. Biophys. Res. Commun. 2014, 453, 254-267). A Staphylococcus aureus 1199B strain that overexpresses the NorA efflux pump was also used to conduct checkerboard experiments (see, Example 8 below). This strain of S. aureus 1199B is resistant to both norfloxacin and ethidium bromide.
(§2) K-12 E. coli and S. aureus were acquired from ATCC. The S. aureus strain was used in the BSL-2 facility. K-12 E. coli was grown in L. B. Miller media (Sigma-Aldrich) and S. aureus was grown in cation adjusted MHII media (Sigma-Aldrich). Tet^R E. coli was grown in L. B. Miller media containing 100 μg/mL Ampicillin.
(§3) MIC experiments were performed as described in the Clinical and Laboratory Standards Institute (CLSI) standard microdilution protocols. Bacteria was grown overnight from one CFU in media without antibiotics. Tet^R E. coli was grown in media containing 100 μg/mL Ampicillin. On the day of experiment, bacteria were knocked back to O.D. 600 nm=0.550 in the same media. These exponential phase bacteria were then diluted in antibiotics-free media to get […]. In a 96-well plate either L. B. Miller or MHII media was added followed by serially diluted compounds 1-11, tetracycline, or ampicillin. All the tryptophan based compounds were dissolved in DMSO and the final concentration of DMSO in each well was kept constant at 0.5% (v/v).
(§4) For the combination experiments, first, the BT or control was added to the media in the well followed by the antibiotics. The contents of the well were mixed before adding 20 μL of bacteria to get 4×10^5 CFU/mL per well. The plates were incubated at 37° C., 200 RPM for 24 hours before collecting results on the Biotek Cytation 3 plate reader. No more than three plates were stacked on top of each other at a time. Optical density of the wells was determined at λ=600 nm. Cells alone were considered as 0% inhibition and media alone was considered as 100% inhibition. Any inhibition greater than 80% was considered as the MIC. The results were reproduced three times before reporting.
(§5) All minimum inhibitory concentration (MIC) values for compounds 1-11 were determined according to the methods prescribed by the National Committee for Clinical Laboratory Standards (NCCLS, Methods for Dilution Antimicrobial Susceptibility Tests for Bacteria that grow aerobically; National Committee for Clinical Laboratory Standards 2000, 5th Edition, M7-A5). […]

Series [3] has as its system S. aureus (ATCC Accession No. 29213). In words: MIC, CLSI/NCCLS broth microdilution. The conditions noted are these: read-out: Minimal Inhibitory Concentration (MIC) S. aureus. In kind it is cell-based, Staphylococcus aureus. The method, then: as §1, §2, §3, §4, §5
The test system of the next series is E. coli K12. In words: MIC, CLSI/NCCLS broth microdilution. The conditions noted are these: read-out: Minimal Inhibitory Concentration (MIC) E. coli K12. Format: cell-based, Escherichia coli. The method, then: as §1, §2, §3, §4, §5
[4] abbreviates: >80% growth inhibition, 24 h, 37° C.
The mark [5] stands for this setting: Staphylococcus aureus, ATCC29213, 24 h.

Like-named read-outs stand apart in the source and are kept apart here.

With Triton X-100 [reference compound], the “propidium iodide penetration (membrane permeability)” value with HEK-293 cells is “strong signal from propidium iodide”. In the series with Tet^R E. coli [1], the “viability (fluorescein diacetate fluorescence)” value was “essentially all the cells were killed”.

For `CC1(C)S[C@@H]2[C@H](NC(=O)[C@H](N)c3ccccc3)C(=O)N2[C@H]1C(=O)O` [ampicillin, reference compound], in the series on Tet^R E. coli [2], the MIC is over 1000 µM.

For `Cl.Cl.NCC(=O)Nc1cccc(NC(=O)CN)c1` [Compound 1, 2,2′-(1,3-Phenylenebis(azanediyl))bis(2-oxoethanaminium) chloride], the melting point was 310 °C (dec.). In addition, the MIC in series [3] (setting [4]) was over 128 µM. In series [3] (setting [5]), the MIC was over 128 µM. Besides, in the series with E. coli K12 (setting [4]), the MIC is over 128 µM. In addition, the MIC in the series on E. coli K12 (Escherichia coli, K12, 24 h) was over 128 µM. Further, in the series with Tet^R E. coli [2], the “Minimal Inhibitory Concentration (MIC) E. coli Tet^R” value (“Minimal Inhibitory Concentration” for short) is over 128 µM and the MIC is over 128 µM.

In the case of `Cl.N[C@@H](Cc1c[nH]c2ccccc12)C(=O)Nc1ccccc1` [Compound 11, (S)-3-(1H-Indol-3-yl)-1-oxo-1-(phenylamino)propan-2-aminium chloride], the MIC in series [3] (setting [4]) is over 128 µM; in series [3] (setting [5]), over 128 µM; in the series on E. coli K12 (setting [4]), over 128 µM; in the series with E. coli K12 (Escherichia coli, K12, 24 h), over 128 µM; in the series on Tet^R E. coli [2] it was over 128 µM. In the series on Tet^R E. coli [2], the “Minimal Inhibitory Concentration” value is over 128 µM.

As for `Cl.Cl.N[C@@H](Cc1c[nH]c2ccccc12)C(=O)NCCCCCCNC(=O)[C@@H](N)Cc1c[nH]c2ccccc12` [Compound 9, (2S,2′S)-1,1′-(Hexane-1,6-diylbis(azanediyl))bis(3-(1H-indol-3-yl)-1-oxopropan-2-aminium) chloride], the melting point is 193 °C (dec.). In series [3] (setting [5]), the MIC was over 128 µM. Also, the MIC with E. coli K12 (Escherichia coli, K12, 24 h) was over 128 µM. Moreover, the MIC in the series with Tet^R E. coli [2] amounted to 128 µM.

As to `O=C(CCc1c[nH]c2ccccc12)Nc1cccc(NC(=O)CCc2c[nH]c3ccccc23)c1` [Compound 4, N,N′-(1,3-Phenylene)bis(3-(1H-indol-3-yl)propanamide)], the melting point is 154 to 156 °C. The MIC in series [3] (setting [5]) was over 128 µM. The MIC in the series with E. coli K12 (Escherichia coli, K12, 24 h) was over 128 µM. Moreover, the MIC in the series on Tet^R E. coli [2] is over 128 µM.

In the case of `Cl.Cl.N[C@H](Cc1c[nH]c2ccccc12)C(=O)NCCCCNC(=O)[C@@H](N)Cc1c[nH]c2ccccc12` [Compound 8, (S)-1-((4-((R)-2-Ammonio-3-(1H-indol-3-yl)propanamido)butyl)amino)-3-(1H-indol-3-yl)-1-oxopropan-2-aminium chloride], the melting point was 204 °C (dec.). For the same compound, the MIC in series [3] (setting [5]) was over 128 µM. For the same compound, in the series on E. coli K12 (Escherichia coli, K12, 24 h), the MIC is over 128 µM. Also, the MIC with Tet^R E. coli [2] is over 128 µM.

Regarding `CN(C)[C@@H]1C(O)=C(C(N)=O)C(=O)[C@@]2(O)C(O)=C3C(=O)c4c(O)cccc4[C@@](C)(O)[C@H]3C[C@@H]12` [tetracycline, reference compound], the MIC with E. coli K12 (Escherichia coli, K12, >80% growth inhibition, 24 h, 37° C.) is about 3 µM. For the same compound, in the series on Tet^R E. coli [2], the “Minimal Inhibitory Concentration” value is 900 µM and the MIC turned out to be 900 ± 100 µM.

These data come from US11213512B2, “Bis-amino acid based compound and use thereof” (THE CURATORS OF THE UNIVERSITY OF MISSOURI, priority 2016, dated 2022).
